Experimental data taken from ChEMBL document CHEMBL3526076, “Species-dependent and receptor-selective action of bilobalide on the function of constitutive androstane receptor and pregnane X receptor” (Drug Metab Dispos, 2012).

Key:
[1] = molecular target: T1, Nuclear receptor subfamily 1 group I member 3 (Rattus norvegicus, UniProt Q9QUS1); experiment: Activation of rat CAR expressed in rat hepatocytes coexpressing CYP2B1 at 30 uM after 24 hrs by dual luciferase reporter gene assay relative to phenobarbital; type: ADME, cell-based, Hepatocyte
T1 sequence (Q9QUS1 whole entry): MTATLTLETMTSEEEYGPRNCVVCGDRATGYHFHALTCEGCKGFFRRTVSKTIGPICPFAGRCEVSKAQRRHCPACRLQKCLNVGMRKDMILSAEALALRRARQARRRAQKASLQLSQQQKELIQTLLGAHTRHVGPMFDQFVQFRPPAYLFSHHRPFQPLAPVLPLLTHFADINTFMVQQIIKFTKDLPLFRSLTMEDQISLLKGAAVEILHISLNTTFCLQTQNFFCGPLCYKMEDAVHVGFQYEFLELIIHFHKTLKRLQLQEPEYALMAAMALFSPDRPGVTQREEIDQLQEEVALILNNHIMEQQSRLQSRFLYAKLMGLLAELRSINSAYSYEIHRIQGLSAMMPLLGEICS

[2] = test system: CAR mRNA; experiment: Effect on CAR mRNA expression in rat hepatocytes at 1 uM by RT-PCR analysis relative to control; type: ADME, cell-based, Hepatocyte; settings: read-out: FC
[3] = molecular target: T2, Nuclear receptor subfamily 1 group I member 2 (Rattus norvegicus, UniProt Q9R1A7); experiment: Antagonist activity at rat PXR expressed in human HepG2 cells coexpressing CYP3A4 assessed as inhibition of PCN-induced receptor activation up to 100 uM after 24 hrs by dual luciferase reporter gene assay; type: ADME, cell-based; settings: hepg2, 24 h
T2 sequence (Q9R1A7 whole entry): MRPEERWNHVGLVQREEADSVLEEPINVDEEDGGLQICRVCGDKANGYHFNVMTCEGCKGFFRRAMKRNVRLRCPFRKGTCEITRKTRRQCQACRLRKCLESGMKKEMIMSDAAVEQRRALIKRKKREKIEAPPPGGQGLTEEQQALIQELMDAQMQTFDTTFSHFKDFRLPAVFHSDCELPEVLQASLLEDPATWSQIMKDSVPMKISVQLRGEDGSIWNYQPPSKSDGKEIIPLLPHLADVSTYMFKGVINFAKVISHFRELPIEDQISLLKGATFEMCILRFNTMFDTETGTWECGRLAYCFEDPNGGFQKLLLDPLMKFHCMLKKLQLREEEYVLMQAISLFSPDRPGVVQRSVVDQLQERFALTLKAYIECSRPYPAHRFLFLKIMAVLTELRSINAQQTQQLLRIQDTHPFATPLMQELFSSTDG

[4] = molecular target: T3, Nuclear receptor subfamily 1 group I member 2 (Homo sapiens, UniProt O75469); experiment: Activation of PXR in human Hu1108 hepatocytes assessed as effect on CYP3A4 mRNA expression at 10 to 50 uM after 24 hrs by RT-PCR analysis; type: ADME, cell-based, Hepatocyte
T3 sequence (O75469 whole entry): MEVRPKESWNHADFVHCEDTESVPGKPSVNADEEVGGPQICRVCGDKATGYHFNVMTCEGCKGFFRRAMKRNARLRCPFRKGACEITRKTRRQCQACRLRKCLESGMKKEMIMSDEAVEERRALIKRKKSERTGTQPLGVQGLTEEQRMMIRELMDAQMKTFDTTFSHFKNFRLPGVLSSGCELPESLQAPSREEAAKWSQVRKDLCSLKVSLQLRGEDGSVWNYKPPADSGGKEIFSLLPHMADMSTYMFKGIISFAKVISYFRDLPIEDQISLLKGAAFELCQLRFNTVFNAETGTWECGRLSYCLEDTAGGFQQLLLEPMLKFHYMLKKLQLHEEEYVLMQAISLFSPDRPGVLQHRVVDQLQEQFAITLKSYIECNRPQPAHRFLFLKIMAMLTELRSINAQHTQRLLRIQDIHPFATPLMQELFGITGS

[5] = molecular target: T1, Nuclear receptor subfamily 1 group I member 3; experiment: Activation of CAR in rat hepatocytes assessed as effect on CYP2B1 mRNA expression at 1 uM after 24 hrs by RT-PCR analysis; type: ADME, cell-based, Hepatocyte
[6] = molecular target: T2, Nuclear receptor subfamily 1 group I member 2; experiment: Activation of PXR in rat hepatocytes assessed as effect on CYP3A-mediated testosterone 6beta-hydroxylation at 1 to 30 uM after 24 hrs by HPLC analysis; type: ADME, cell-based, Hepatocyte
[7] = molecular target: T1, Nuclear receptor subfamily 1 group I member 3; experiment: Activation of CAR in rat hepatocytes assessed as upregulation of CYP2B1 mRNA expression at 3 uM after 24 hrs by RT-PCR analysis relative to phenobarbital; type: ADME, cell-based, Hepatocyte
[8] = test system: PXR mRNA; experiment: Effect on PXR mRNA expression in rat hepatocytes at 10 uM by RT-PCR analysis relative to control; type: ADME, cell-based, Hepatocyte; settings: read-out: FC
[9] = test system: CAR mRNA; experiment: Effect on CAR mRNA expression in rat hepatocytes at 3 uM by RT-PCR analysis relative to control; type: ADME, cell-based, Hepatocyte; settings: read-out: FC
[10] = test system: PXR mRNA; experiment: Effect on PXR mRNA expression in rat hepatocytes at 3 uM by RT-PCR analysis relative to control; type: ADME, cell-based, Hepatocyte; settings: read-out: FC
[11] = test system: PXR mRNA; experiment: Effect on PXR mRNA expression in human hepatocytes at 50 uM by RT-PCR analysis relative to control; type: ADME, cell-based, Hepatocyte; settings: read-out: FC
[12] = molecular target: T2, Nuclear receptor subfamily 1 group I member 2; experiment: Activation of rat PXR expressed in human HepG2 cells coexpressing CYP3A4 at 0.1 to 100 uM after 24 hrs by dual luciferase reporter gene assay; type: ADME, cell-based; settings: hepg2, 24 h
[13] = test system: CAR mRNA; experiment: Effect on CAR mRNA expression in human hepatocytes at 10 uM by RT-PCR analysis relative to control; type: ADME, cell-based, Hepatocyte; settings: read-out: FC
[14] = molecular target: T1, Nuclear receptor subfamily 1 group I member 3; experiment: Activation of CAR in rat hepatocytes assessed as increase in CYP2B-mediated benzyloxyresorufin O-dealkylation at 10 uM after 24 hrs by spectrofluorometric analysis relative to phenobarbital; type: ADME, cell-based, Hepatocyte
[15] = molecular target: T1, Nuclear receptor subfamily 1 group I member 3; experiment: Activation of CAR in rat hepatocytes assessed as increase in CYP2B-mediated benzyloxyresorufin O-dealkylation at 1 uM after 24 hrs by spectrofluorometric analysis relative to phenobarbital; type: ADME, cell-based, Hepatocyte
[16] = molecular target: T4, Nuclear receptor subfamily 1 group I member 3 (Homo sapiens, UniProt Q14994); experiment: Activation of human CAR expressed in human HepG2 cells coexpressing CYP2B6 at 0.1 to 100 uM after 24 hrs by dual luciferase reporter gene assay; type: ADME, cell-based; settings: hepg2, 24 h
T4 sequence (Q14994 whole entry): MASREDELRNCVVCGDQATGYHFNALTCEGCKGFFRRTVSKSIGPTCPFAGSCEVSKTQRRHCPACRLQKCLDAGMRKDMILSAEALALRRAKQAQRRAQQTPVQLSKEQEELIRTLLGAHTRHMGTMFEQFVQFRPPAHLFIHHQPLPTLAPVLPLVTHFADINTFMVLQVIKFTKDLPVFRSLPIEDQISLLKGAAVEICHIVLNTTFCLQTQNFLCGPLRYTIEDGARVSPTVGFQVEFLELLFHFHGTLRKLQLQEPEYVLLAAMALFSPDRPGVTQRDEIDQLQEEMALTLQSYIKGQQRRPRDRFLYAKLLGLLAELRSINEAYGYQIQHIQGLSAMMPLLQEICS

[17] = molecular target: T1, Nuclear receptor subfamily 1 group I member 3; experiment: Activation of rat CAR expressed in rat hepatocytes coexpressing CYP2B1 at 60 uM after 24 hrs by dual luciferase reporter gene assay relative to phenobarbital; type: ADME, cell-based, Hepatocyte
[18] = test system: PXR mRNA; experiment: Effect on PXR mRNA expression in rat hepatocytes at 30 uM by RT-PCR analysis relative to control; type: ADME, cell-based, Hepatocyte; settings: read-out: FC
[19] = molecular target: T1, Nuclear receptor subfamily 1 group I member 3; experiment: Activation of CAR in rat hepatocytes assessed as upregulation of CYP2B1 mRNA expression at 30 uM after 24 hrs by RT-PCR analysis relative to phenobarbital; type: ADME, cell-based, Hepatocyte

For `CC(C)(C)[C@]1(O)C[C@@H]2OC(=O)C[C@@]23C(=O)O[C@@H]2OC(=O)[C@H](O)[C@]213`, the Activity [1] was 189%, the fold induction at 1 µM [2] was 1.3 and the “inhibition (INH)” value [3] was “Not Active”. For the same compound, the Activity [4] was “Not Active”, the Activity [5] was “Not Active” and the Activity [6] was “Not Active”. It also gave an Activity [7] of 6%, a fold induction at 10 µM [8] of 1.4 and a fold induction at 3 µM [9] of 1.3. For the same compound, the fold induction at 3 µM [10] was 1, the fold induction at 50 µM [11] was 0.4 and the Activity [12] was “Not Active”. For the same compound, the fold induction at 10 µM [13] was 1.4, the Activity [14] was 64% and the Activity [15] was 30%. The Activity [16] was “Not Active”, the Activity [17] was 176% and the fold induction at 30 µM [18] was 0.8. The Activity [19] was 37%.
